In patent publication US20240132484A1, “BROAD SPECTRUM ANTIVIRAL COMPOUNDS TARGETING THE SKI COMPLEX” (priority 2020, published 2024):
“And” between values parts separate entries of the source, which are not always exact repeats. Equal values may be shown once. Read-outs that look alike come from different tables or passages of the source.

Tests used:
SARS2 = type: cell-based, SARS-CoV-2; conditions: for Percentage Inhibition Average 1 μM / Screening data (Relative infection to DMSO controls) Average 1 μM: SARS2, 1 μM; for Screening data (Relative infection to DMSO controls) Average 1 μM / Screening data (Relative infection to DMSO controls) Average 5 μM / Screening data (Relative infection to DMSO controls) Average 10 μM / Screening data (Relative infection to DMSO controls) Average 25 μM / Screening data (Relative infection to DMSO controls) Average 50 μM / Average (relative infection to DMSO over the 5 tested concentrations): 100=DMSO control; for Percentage Inhibition Average 5 μM / Screening data (Relative infection to DMSO controls) Average 5 μM: SARS2, 5 μM; for Percentage Inhibition Average 10 μM / Screening data (Relative infection to DMSO controls) Average 10 μM: SARS2, 10 μM; for Percentage Inhibition Average 25 μM / Screening data (Relative infection to DMSO controls) Average 25 μM: SARS2, 25 μM; for Percentage Inhibition Average 50 μM / Screening data (Relative infection to DMSO controls) Average 50 μM: SARS2, 50 μM; for Average (relative infection to DMSO over the 5 tested concentrations): SARS2, average over 1 to 50 uM; for Percentage Infection Relative to Appropriate DMSO Control with Avg Background Subtraction: Nunc Celigo plates; for Infection Data, Average, Mean: average of Exp 1-2 (SMW491, SMW492)
cells (nuclei count) = conditions: for Relative cell count to DMSO controls, Average 1 μM / Relative cell count to DMSO controls, Average 5 μM / Relative cell count to DMSO controls, Average 10 μM / Relative cell count to DMSO controls, Average 25 μM / Relative cell count to DMSO controls, Average 50 μM: toxicity data, 100=DMSO control; for Relative cell count to DMSO controls, Average (for correlation analysis): average value over the 5 tested concentrations (1 to 50 uM); for Toxicity Data, Average, Mean percentage relative to DMSO control: Average of Exp 1 (SMW491) and Exp 2 (SMW492)

SMILES | SARS2 antiviral activity (SARS2) | Percentage Inhibition Average 1 μM (SARS2) [%] | Screening data (Relative infection to DMSO controls) Average 1 μM (SARS2) | Percentage Inhibition Average 5 μM (SARS2) [%] | Screening data (Relative infection to DMSO controls) Average 5 μM (SARS2) | Percentage Inhibition Average 10 μM (SARS2) [%] | Screening data (Relative infection to DMSO controls) Average 10 μM (SARS2) | Percentage Inhibition Average 25 μM (SARS2) [%] | Screening data (Relative infection to DMSO controls) Average 25 μM (SARS2) | Percentage Inhibition Average 50 μM (SARS2) [%] | Screening data (Relative infection to DMSO controls) Average 50 μM (SARS2) | Average (relative infection to DMSO over the 5 tested concentrations) (SARS2) | Relative cell count to DMSO controls, Average 1 μM (cells (nuclei count)) | Relative cell count to DMSO controls, Average 5 μM (cells (nuclei count)) | Relative cell count to DMSO controls, Average 10 μM (cells (nuclei count)) | Relative cell count to DMSO controls, Average 25 μM (cells (nuclei count)) | Relative cell count to DMSO controls, Average 50 μM (cells (nuclei count)) | Relative cell count to DMSO controls, Average (for correlation analysis) (cells (nuclei count)) | also measured
Cc1ccc(CN(CCN(C)C)Cc2ccccc2)o1 [SILCS11] | improved activity over SILCS1 | 24.29 | 75.71 | 21.46 | 78.54 | 45.84 | 54.16 | 64.99 | 35.01 | 79.69 | 20.31 | 52.75 | 111.01 | 106.15 | 120.55 | 105.91 | 80.38 | 104.80 | Toxicity Data, Average, Mean (relative to DMSO control) (cells (nuclei count); Average of Exp 1-3, 1 uM): 111.01%; Toxicity Data, Average, Mean (relative to DMSO control) (cells (nuclei count); Average of Exp 1-3, 5 uM): 106.15%; Toxicity Data, Average, Mean (relative to DMSO control) (cells (nuclei count); Average of Exp 1-3, 10 uM): 120.55%; Toxicity Data, Average, Mean (relative to DMSO control) (cells (nuclei count); Average of Exp 1-3, 25 uM): 105.91%; Toxicity Data, Average, Mean (relative to DMSO control) (cells (nuclei count); Average of Exp 1-3, 50 uM): 80.38%
CN(C)CCCN(Cc1cccs1)C(=O)c1cccs1 [SILCS40] | inactive | −17.72 | 117.72 | 1.14 | 98.86 | −15.37 | 115.37 | −41.44 | 141.44 | 47.95 | 52.05 | 105.09 | 86.49 | 96.33 | 92.49 | 83.93 | 117.52 | 95.35 | Percentage Infection Relative to Appropriate DMSO Control with Avg Background Subtraction (SARS2; Exp 1 (SMW491), 1 uM): 161.72% and 144.95%; Percentage Infection Relative to Appropriate DMSO Control with Avg Background Subtraction (SARS2; Exp 1 (SMW491), 5 uM): 118.41% and 120.39%; Percentage Infection Relative to Appropriate DMSO Control with Avg Background Subtraction (SARS2; Exp 1 (SMW491), 10 uM): 125.55% and 160.68%; Percentage Infection Relative to Appropriate DMSO Control with Avg Background Subtraction (SARS2; Exp 1 (SMW491), 25 uM): 122.15% and 145.90%; Percentage Infection Relative to Appropriate DMSO Control with Avg Background Subtraction (SARS2; Exp 1 (SMW491), 50 uM): 46.53% and 56.51%; Percentage Infection Relative to Appropriate DMSO Control with Avg Background Subtraction (SARS2; Exp 2 (SMW492), 1 uM): 86.70% and 77.51%; Percentage Infection Relative to Appropriate DMSO Control with Avg Background Subtraction (SARS2; Exp 2 (SMW492), 5 uM): 88.04% and 68.60%; Percentage Infection Relative to Appropriate DMSO Control with Avg Background Subtraction (SARS2; Exp 2 (SMW492), 10 uM): 101.31% and 73.96%; Percentage Infection Relative to Appropriate DMSO Control with Avg Background Subtraction (SARS2; Exp 2 (SMW492), 25 uM): 185.38% and 112.33%; Percentage Infection Relative to Appropriate DMSO Control with Avg Background Subtraction (SARS2; Exp 2 (SMW492), 50 uM): 61.71% and 43.46%; Infection Data, Average, Mean (SARS2; n 4, 1 uM): 117.72%; Infection Data, Average, Mean (SARS2; n 4, 5 uM): 98.86%; Infection Data, Average, Mean (SARS2; n 4, 10 uM): 115.37%; Infection Data, Average, Mean (SARS2; n 4, 25 uM): 141.44%; Infection Data, Average, Mean (SARS2; n 4, 50 uM): 52.05%; Toxicity Data, Average, Mean percentage relative to DMSO control (cells (nuclei count); n=4, 1 uM): 86.49%; Toxicity Data, Average, Mean percentage relative to DMSO control (cells (nuclei count); n=4, 5 uM): 96.33%; Toxicity Data, Average, Mean percentage relative to DMSO control (cells (nuclei count); n=4, 10 uM): 92.49%; Toxicity Data, Average, Mean percentage relative to DMSO control (cells (nuclei count); n=4, 25 uM): 83.93%; Toxicity Data, Average, Mean percentage relative to DMSO control (cells (nuclei count); n=4, 50 uM): 117.52%
